Experimental data from ChEMBL document CHEMBL3885861, “Open TG-GATES”.

Species on record: Rattus norvegicus
Assay: Open TG-GATES - Regimen: Single
Format: toxicity, organism-based, Sprague-Dawley
Set-up: regimen Single, gender Male, age 6 weeks
Details: in vivo, po, route gavage; for APTT / Bas / Eos / Fbg / Hb / Ht / Lym / MCH / MCHC / MCV / Mono / Neu / PT / RBC / Ret / WBC / Plat: tissue Blood; for KIDNEY_L / KIDNEY_R / KIDNEY_TOTAL: tissue Kidney; for ALP / ALT / AST / BUN / CRE / Ca / DBIL / GLC / K / LDH / Na / PL / RALB / TBIL / TC / TG / TP / gamma-GTP / IP: tissue Plasma; for LIVER: tissue Liver
[1] = 50 mg/kg, 3 h, dose level Middle

With `Oc1ncnc2[nH]ncc12` [ALLOPURINOL] the APTT (15 mg/kg, 3 h, dose level Low) was 16.3 s, the Bas (15 mg/kg, 3 h, dose level Low) was 0% and the Eos (15 mg/kg, 3 h, dose level Low) was 1%. It also gave a Fbg (15 mg/kg, 3 h, dose level Low) of 209.6 mg/dL, a Hb (15 mg/kg, 3 h, dose level Low) of 13.9 g/dL and a Ht (15 mg/kg, 3 h, dose level Low) of 41.2%. It also gave a Lym (15 mg/kg, 3 h, dose level Low) of 80.4%, an MCH (15 mg/kg, 3 h, dose level Low) of 22 pg and an MCHC (15 mg/kg, 3 h, dose level Low) of 33.8%. It also gave an MCV (15 mg/kg, 3 h, dose level Low) of 65 fL, a Mono (15 mg/kg, 3 h, dose level Low) of 7.4% and a Neu (15 mg/kg, 3 h, dose level Low) of 11.2%. It also gave a PT (15 mg/kg, 3 h, dose level Low) of 12.5 s, an RBC (15 mg/kg, 3 h, dose level Low) of 636 x10_4/ul and a Ret (15 mg/kg, 3 h, dose level Low) of 8.4%. It also gave a WBC (15 mg/kg, 3 h, dose level Low) of 99.2 x10_2/uL, a KIDNEY_L (15 mg/kg, 3 h, dose level Low) of 1 g and a KIDNEY_R (15 mg/kg, 3 h, dose level Low) of 1 g. It also gave a KIDNEY_TOTAL (15 mg/kg, 3 h, dose level Low) of 2 g, an ALP (15 mg/kg, 3 h, dose level Low) of 884.4 IU/L and an ALT (15 mg/kg, 3 h, dose level Low) of 35.4 IU/L. It also gave an AST (15 mg/kg, 3 h, dose level Low) of 64.4 IU/L, a BUN (15 mg/kg, 3 h, dose level Low) of 12.4 mg/dL and a CRE (15 mg/kg, 3 h, dose level Low) of 0.5 mg/dL. The Ca (15 mg/kg, 3 h, dose level Low) was 11.3 mg/dL, the DBIL (15 mg/kg, 3 h, dose level Low) was 0.086 mg/dL and the GLC (15 mg/kg, 3 h, dose level Low) was 183.8 mg/dL. For the same compound, the K (15 mg/kg, 3 h, dose level Low) was 4.9 meq/L, the LDH (15 mg/kg, 3 h, dose level Low) was 115.4 IU/L and the Na (15 mg/kg, 3 h, dose level Low) was 139.2 meq/L. It also gave a PL (15 mg/kg, 3 h, dose level Low) of 132.8 mg/dL, an RALB (15 mg/kg, 3 h, dose level Low) of 3.7 g/dL and a TBIL (15 mg/kg, 3 h, dose level Low) of 0.4 mg/dL. For the same compound, the TC (15 mg/kg, 3 h, dose level Low) was 73.4 mg/dL, the TG (15 mg/kg, 3 h, dose level Low) was 54.6 mg/dL and the TP (15 mg/kg, 3 h, dose level Low) was 5.5 g/dL. The gamma-GTP (15 mg/kg, 3 h, dose level Low) was 1.6 IU/L, the TERMINAL_BW (15 mg/kg, 6 h, dose level Low) was 209.5 g and the APTT (15 mg/kg, 6 h, dose level Low) was 16.8 s. The Bas (15 mg/kg, 6 h, dose level Low) was 0%, the Eos (15 mg/kg, 6 h, dose level Low) was 0.4% and the Fbg (15 mg/kg, 6 h, dose level Low) was 206.8 mg/dL. It also gave a Hb (15 mg/kg, 6 h, dose level Low) of 13.6 g/dL, a Ht (15 mg/kg, 6 h, dose level Low) of 40.5% and a Lym (15 mg/kg, 6 h, dose level Low) of 79%. The MCH (15 mg/kg, 6 h, dose level Low) was 21.8 pg, the MCHC (15 mg/kg, 6 h, dose level Low) was 33.5% and the MCV (15 mg/kg, 6 h, dose level Low) was 65.3 fL. It also gave a Mono (15 mg/kg, 6 h, dose level Low) of 6.2%, a Neu (15 mg/kg, 6 h, dose level Low) of 14.2% and a PT (15 mg/kg, 6 h, dose level Low) of 12.4 s. For the same compound, the Plat (15 mg/kg, 6 h, dose level Low) was 109.1 x10_4/uL, the RBC (15 mg/kg, 6 h, dose level Low) was 620.2 x10_4/ul and the Ret (15 mg/kg, 6 h, dose level Low) was 8.1%. It also gave a WBC (15 mg/kg, 6 h, dose level Low) of 101.3 x10_2/uL, a KIDNEY_L (15 mg/kg, 6 h, dose level Low) of 1 g and a KIDNEY_R (15 mg/kg, 6 h, dose level Low) of 1 g. For the same compound, the KIDNEY_TOTAL (15 mg/kg, 6 h, dose level Low) was 2 g, the LIVER (15 mg/kg, 6 h, dose level Low) was 9.6 g and the ALP (15 mg/kg, 6 h, dose level Low) was 695 IU/L. The ALT (15 mg/kg, 6 h, dose level Low) was 30 IU/L, the AST (15 mg/kg, 6 h, dose level Low) was 58 IU/L and the BUN (15 mg/kg, 6 h, dose level Low) was 11 mg/dL. The CRE (15 mg/kg, 6 h, dose level Low) was 0.5 mg/dL, the Ca (15 mg/kg, 6 h, dose level Low) was 11.4 mg/dL and the DBIL (15 mg/kg, 6 h, dose level Low) was 0.024 mg/dL. It also gave a GLC (15 mg/kg, 6 h, dose level Low) of 187 mg/dL, an IP (15 mg/kg, 6 h, dose level Low) of 10.1 mg/dL and a K (15 mg/kg, 6 h, dose level Low) of 4.8 meq/L. It also gave an LDH (15 mg/kg, 6 h, dose level Low) of 74.8 IU/L, a Na (15 mg/kg, 6 h, dose level Low) of 138.4 meq/L and a PL (15 mg/kg, 6 h, dose level Low) of 126.6 mg/dL. It also gave an RALB (15 mg/kg, 6 h, dose level Low) of 3.7 g/dL, a TBIL (15 mg/kg, 6 h, dose level Low) of 0.3 mg/dL and a TC (15 mg/kg, 6 h, dose level Low) of 67.6 mg/dL. The TG (15 mg/kg, 6 h, dose level Low) was 60.8 mg/dL, the TP (15 mg/kg, 6 h, dose level Low) was 5.5 g/dL and the gamma-GTP (15 mg/kg, 6 h, dose level Low) was 1 IU/L. For the same compound, the TERMINAL_BW (15 mg/kg, 9 h, dose level Low) was 204 g, the APTT (15 mg/kg, 9 h, dose level Low) was 16.6 s and the Bas (15 mg/kg, 9 h, dose level Low) was 0%. It also gave an Eos (15 mg/kg, 9 h, dose level Low) of 1.2%, a Fbg (15 mg/kg, 9 h, dose level Low) of 221.6 mg/dL and a Hb (15 mg/kg, 9 h, dose level Low) of 13.6 g/dL. The Ht (15 mg/kg, 9 h, dose level Low) was 40.7%, the Lym (15 mg/kg, 9 h, dose level Low) was 66.4% and the MCH (15 mg/kg, 9 h, dose level Low) was 21.7 pg. For the same compound, the MCHC (15 mg/kg, 9 h, dose level Low) was 33.4%, the MCV (15 mg/kg, 9 h, dose level Low) was 65 fL and the Mono (15 mg/kg, 9 h, dose level Low) was 11.8%. It also gave a Neu (15 mg/kg, 9 h, dose level Low) of 20.4%, a PT (15 mg/kg, 9 h, dose level Low) of 12.3 s and an RBC (15 mg/kg, 9 h, dose level Low) of 626.6 x10_4/ul. It also gave a Ret (15 mg/kg, 9 h, dose level Low) of 7.9%, a WBC (15 mg/kg, 9 h, dose level Low) of 92.7 x10_2/uL and a KIDNEY_L (15 mg/kg, 9 h, dose level Low) of 1 g. It also gave a KIDNEY_R (15 mg/kg, 9 h, dose level Low) of 1 g, a KIDNEY_TOTAL (15 mg/kg, 9 h, dose level Low) of 1.9 g and an LIVER (15 mg/kg, 9 h, dose level Low) of 9.1 g. For the same compound, the ALP (15 mg/kg, 9 h, dose level Low) was 837 IU/L, the ALT (15 mg/kg, 9 h, dose level Low) was 27.6 IU/L and the AST (15 mg/kg, 9 h, dose level Low) was 58.8 IU/L. The BUN (15 mg/kg, 9 h, dose level Low) was 13 mg/dL, the CRE (15 mg/kg, 9 h, dose level Low) was 0.4 mg/dL and the DBIL (15 mg/kg, 9 h, dose level Low) was 0.042 mg/dL. The GLC (15 mg/kg, 9 h, dose level Low) was 198.8 mg/dL, the K (15 mg/kg, 9 h, dose level Low) was 4.8 meq/L and the LDH (15 mg/kg, 9 h, dose level Low) was 74.6 IU/L. It also gave a Na (15 mg/kg, 9 h, dose level Low) of 138.6 meq/L, a PL (15 mg/kg, 9 h, dose level Low) of 129.8 mg/dL and an RALB (15 mg/kg, 9 h, dose level Low) of 3.8 g/dL. For the same compound, the TBIL (15 mg/kg, 9 h, dose level Low) was 0.3 mg/dL, the TC (15 mg/kg, 9 h, dose level Low) was 69.2 mg/dL and the TG (15 mg/kg, 9 h, dose level Low) was 53.2 mg/dL. For the same compound, the TP (15 mg/kg, 9 h, dose level Low) was 5.7 g/dL, the gamma-GTP (15 mg/kg, 9 h, dose level Low) was 1.4 IU/L and the TERMINAL_BW (15 mg/kg, 24 h, dose level Low) was 224.8 g. It also gave an APTT (15 mg/kg, 24 h, dose level Low) of 16.1 s, a Bas (15 mg/kg, 24 h, dose level Low) of 0% and an Eos (15 mg/kg, 24 h, dose level Low) of 1.2%. The Fbg (15 mg/kg, 24 h, dose level Low) was 213.8 mg/dL, the Hb (15 mg/kg, 24 h, dose level Low) was 13.6 g/dL and the Ht (15 mg/kg, 24 h, dose level Low) was 40.8%. The Lym (15 mg/kg, 24 h, dose level Low) was 79.4%, the MCH (15 mg/kg, 24 h, dose level Low) was 21.8 pg and the MCHC (15 mg/kg, 24 h, dose level Low) was 33.3%. The MCV (15 mg/kg, 24 h, dose level Low) was 65.4 fL, the Mono (15 mg/kg, 24 h, dose level Low) was 7.2% and the Neu (15 mg/kg, 24 h, dose level Low) was 12.4%. It also gave a PT (15 mg/kg, 24 h, dose level Low) of 12.2 s, a Plat (15 mg/kg, 24 h, dose level Low) of 113.4 x10_4/uL and an RBC (15 mg/kg, 24 h, dose level Low) of 623 x10_4/ul. For the same compound, the Ret (15 mg/kg, 24 h, dose level Low) was 7.9%, the WBC (15 mg/kg, 24 h, dose level Low) was 93.3 x10_2/uL and the KIDNEY_L (15 mg/kg, 24 h, dose level Low) was 1 g. The KIDNEY_R (15 mg/kg, 24 h, dose level Low) was 1 g, the KIDNEY_TOTAL (15 mg/kg, 24 h, dose level Low) was 2 g and the ALP (15 mg/kg, 24 h, dose level Low) was 884.8 IU/L. The ALT (15 mg/kg, 24 h, dose level Low) was 33.2 IU/L, the AST (15 mg/kg, 24 h, dose level Low) was 61.6 IU/L and the BUN (15 mg/kg, 24 h, dose level Low) was 17.8 mg/dL. The CRE (15 mg/kg, 24 h, dose level Low) was 0.5 mg/dL, the DBIL (15 mg/kg, 24 h, dose level Low) was 0.024 mg/dL and the GLC (15 mg/kg, 24 h, dose level Low) was 187.4 mg/dL. The IP (15 mg/kg, 24 h, dose level Low) was 8 mg/dL, the K (15 mg/kg, 24 h, dose level Low) was 5 meq/L and the LDH (15 mg/kg, 24 h, dose level Low) was 85.2 IU/L. It also gave a Na (15 mg/kg, 24 h, dose level Low) of 138.8 meq/L, a PL (15 mg/kg, 24 h, dose level Low) of 149.8 mg/dL and an RALB (15 mg/kg, 24 h, dose level Low) of 3.6 g/dL. The TBIL (15 mg/kg, 24 h, dose level Low) was 0.3 mg/dL, the TC (15 mg/kg, 24 h, dose level Low) was 78 mg/dL and the TG (15 mg/kg, 24 h, dose level Low) was 91.4 mg/dL. The TP (15 mg/kg, 24 h, dose level Low) was 5.7 g/dL, the gamma-GTP (15 mg/kg, 24 h, dose level Low) was 1.8 IU/L and the TERMINAL_BW [1] was 210.9 g. The APTT [1] was 16.6 s and the Bas [1] was 0%.
